Source: patent US20220348590A1, “CYCLOOXYGENASE-2 INHIBITORS AND USES THEREOF” (The Board Institute, Inc., priority 2019, published 2022)
Like-named read-outs stand apart in the source and are kept apart here.

Target: T1, human recombinant COX2 (hCOX2) (UniProt P35354)
T1 sequence (P35354 1-604): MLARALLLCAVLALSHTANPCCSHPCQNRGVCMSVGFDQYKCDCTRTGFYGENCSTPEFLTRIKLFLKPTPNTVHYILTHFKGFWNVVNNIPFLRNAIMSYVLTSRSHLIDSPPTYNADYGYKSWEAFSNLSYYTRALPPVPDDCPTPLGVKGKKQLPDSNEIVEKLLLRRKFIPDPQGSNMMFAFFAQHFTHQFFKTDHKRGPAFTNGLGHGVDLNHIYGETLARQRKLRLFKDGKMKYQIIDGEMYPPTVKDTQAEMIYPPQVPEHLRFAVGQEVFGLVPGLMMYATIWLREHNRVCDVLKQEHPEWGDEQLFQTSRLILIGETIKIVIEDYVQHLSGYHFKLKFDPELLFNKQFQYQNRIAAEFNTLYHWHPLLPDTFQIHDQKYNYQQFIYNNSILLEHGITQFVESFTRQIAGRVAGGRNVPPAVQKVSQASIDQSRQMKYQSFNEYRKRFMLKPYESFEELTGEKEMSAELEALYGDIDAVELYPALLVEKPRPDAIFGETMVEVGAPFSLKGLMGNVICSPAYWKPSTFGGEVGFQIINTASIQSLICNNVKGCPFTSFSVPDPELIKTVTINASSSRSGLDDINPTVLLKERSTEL
Assay: LCMS-based COX2 enzymatic inhibition assay (PGE2 quantification)
Assay type: biochemical
Design: COX2 2 minutes pge2/pge2d4 area ratio Avg; other: 2 minutes; readout pge2/pge2d4 area ratio; average; COX2 2 minutes pge2/pge2d4 area ratio Avg; LLE; average LLE; COX2 2 minutes pge2 area (counts) Avg; readout pge2 area (counts); other: 2 min; "ovine COX2 (oCOX2), human recombinant COX2 (hCOX2)"
Conditions: for COX2 2 minutes pge2/pge2d4 area ratio Avg. LLE / COX2 2 minutes pge2 area (counts) Avg. LLE / COX2 10 minutes pge2 area (counts) Avg. LLE: average LLE; for IC50: average
How it was run: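 PGE2 formed from arachidonic acid (final 5 μM, 2 min) was measured by LC-MS-MS against DMSO controls. Enzyme (oCOX-1 0.1 μg or hCOX2 0.2 μg) with hematin/epinephrine cofactors at pH 8.0 was given 10 min at 37 °C with compound first. Twelve-point curves run three times gave IC50.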

[1] = 2 minutes, readout pge2/pge2d4 area ratio
[2] = 2 minutes, readout pge2/pge2d4 area ratio, read-out: COX2 2 minutes pge2/pge2d4 area ratio Avg. IC50
[3] = 2 minutes, readout pge2 area (counts)
[4] = 2 minutes, readout pge2 area (counts), read-out: COX2 2 minutes pge2 area (counts) Avg. IC50
[5] = 10 minutes, readout pge2 area (counts)
[6] = 10 minutes, readout pge2 area (counts), read-out: COX2 10 minutes pge2 area (counts) Avg. IC50
[7] = read-out: COX2 2 minutes pge2/pge2d4 area ratio Avg. IC50 (microM), 2 minutes, readout pge2/pge2d4 area ratio

| Structure (SMILES) | COX2 2 minutes pge2/pge2d4 area ratio Avg. LLE [1] | IC50 [2] [µM] | COX2 2 minutes pge2 area (counts) Avg. LLE [3] | IC50 [4] [µM] | COX2 10 minutes pge2 area (counts) Avg. LLE [5] | IC50 [6] [µM] | IC50 [7] [µM] |
| --- | --- | --- | --- | --- | --- | --- | --- |
| COc1ncc(NCc2cnco2)nc1-c1ccc(S(C)(=O)=O)cc1 [Compound 227] | 4.384 | 2.06 | 4.493 | 1.6 | – | – | – |
| COc1ncc(NCc2ccccn2)nc1-c1ccc(S(C)(=O)=O)cc1 [Compound 228] | 4.528 | 2.12 | 4.5985 | 1.8 | – | – | – |
| COc1ncc(-c2ccc(S(C)(=O)=O)cc2)nc1NCc1ccncc1 [Compound 230] | 4.383 | 2.38 | 4.367 | 2.48 | – | – | – |
| CS(=O)(=O)c1ccc(-c2cccc(NCc3ncco3)n2)cc1 [Compound 231] | 3.1763 | 2.4 | 3.075 | 2.73 | – | – | – |
| CS(=O)(=O)c1ccc(-c2cncc(OCc3cccs3)c2)cc1 [Compound 232] | 2.229 | 2.41 | 2.107 | 2.35 | – | – | – |
| CS(=O)(=O)c1ccc(-c2cnnc(NCc3cccs3)c2)cc1 [Compound 233] | 2.958 | 2.45 | 2.953 | 3.06 | – | – | – |
| CS(=O)(=O)c1ccc(-c2cc(OCc3cccs3)cnn2)cc1 [Compound 234] | 3.137 | 2.45 | 3.14 | 2.42 | – | – | – |
| CS(=O)(=O)c1ccc(-c2cc(NCc3ccco3)ccn2)cc1 [Compound 235] | – | 2.5 | – | 2.15 | – | – | – |
| COc1ncc(NCc2ncco2)nc1-c1ccc(S(C)(=O)=O)cc1 [Compound 236] | 4.092 | 2.54 | 4.092 | 2.5 | – | – | – |
| Cn1cc(CNc2cncc(-c3ccc(S(C)(=O)=O)cc3)n2)cn1 [Compound 237] | 4.753 | 2.56 | 4.8121 | 2.23 | – | – | – |
| CS(=O)(=O)c1ccc(-n2ccc3ccc(Nc4cccnc4)nc32)cc1 [Compound 238] | – | 2.66 | – | 3.28 | – | – | – |
| CS(=O)(=O)c1ccc(-c2cc(NCc3ccoc3)ncn2)cc1 [Compound 239] | – | 2.74 | – | 3.1 | – | – | – |
| CS(=O)(=O)c1ccc(-c2cncc(NC34CC5CC(CC(C5)C3)C4)n2)cc1 [Compound 240] | 2.7806 | 2.82 | 2.394 | – | 2.9969 | 1.31 | – |
| CS(=O)(=O)c1ccc(-c2cc(NCc3ccoc3)ccn2)cc1 [Compound 242] | – | 3.01 | – | – | – | – | – |
| CC(C)CN(C)c1cncc(-c2ccc(S(C)(=O)=O)cc2)n1 [Compound 243] | 3.642 | 3.12 | 3.739 | 2.31 | – | – | – |
| CS(=O)(=O)c1ccc(-c2cnc3cnn(Cc4cccs4)c3c2)cc1 [Compound 244] | 1.703 | 3.15 | – | – | – | – | – |
| Cn1ccc(CNc2cncc(-c3ccc(S(C)(=O)=O)cc3)n2)n1 [Compound 245] | 4.632 | 3.16 | 4.621 | 3.33 | – | – | – |
| CS(=O)(=O)c1ccc(-c2cncc(NCc3ncco3)n2)cc1 [Compound 246] | 4.306 | 3.27 | 4.2875 | 3.41 | – | – | – |
| CS(=O)(=O)c1ccc(-c2cccc(/C=C/c3ccoc3)n2)cc1 [Compound 247] | 1.819 | 3.36 | 1.724 | – | – | – | – |
| CC(=O)c1ncc(NCc2cccs2)nc1-c1ccc(S(C)(=O)=O)cc1 [Compound 248] | 3.159 | 3.36 | 3.163 | 3.3 | – | – | – |

| Structure (SMILES) | COX2 2 minutes pge2/pge2d4 area ratio Avg. LLE [1] | IC50 [2] [µM] | COX2 2 minutes pge2 area (counts) Avg. LLE [3] | IC50 [4] [µM] | COX2 10 minutes pge2 area (counts) Avg. LLE [5] | IC50 [6] [µM] | IC50 [7] [µM] |
| --- | --- | --- | --- | --- | --- | --- | --- |
| CS(=O)(=O)c1ccc(-c2cccc(NCc3ccco3)n2)cn1 [Compound 250] | 3.529 | 3.44 | 3.534 | 3.47 | – | – | – |
| CS(=O)(=O)c1ccc(-c2cccc([S@+]([O-])Cc3cccs3)n2)cc1 [Compound 251] | 3.082 | 3.7 | 2.9649 | 4.84 | – | – | – |
| CS(=O)(=O)c1ccc(-c2cncc(OC[C@H]3CCCO3)n2)cc1 [Compound 252] | 4.199 | 3.72 | 4.054 | – | – | – | – |
| CS(=O)(=O)c1ccc(-c2cccc(NCc3cocn3)n2)cc1 [Compound 254] | 3.075 | 3.93 | – | – | – | – | – |
| CS(=O)(=O)c1ccc(-c2cnnc(OCc3ccco3)c2)cc1 [Compound 255] | 3.111 | 4.01 | 3.485 | 1.93 | – | – | – |
| CS(=O)(=O)c1ccc(-c2nc3cnn(Cc4cccs4)c3[nH]2)cc1 [Compound 256] | – | 4.04 | – | 4.56 | – | – | – |
| CS(=O)(=O)c1ccc(-c2nc(NCc3cccs3)cnc2C(N)=O)cc1 [Compound 257] | 4.28 | 4.09 | 4.347 | 3.49 | – | – | – |
| CS(=O)(=O)c1ccc(-c2cncc(SCc3cocn3)n2)cc1 [Compound 258] | 3.44 | 4.1 | 3.462 | 3.9 | – | – | – |
| COc1cc(S(C)(=O)=O)ccc1-c1cccc(NCc2cccs2)n1 [Compound 259] | 1.917 | 4.15 | 2.088 | 3.25 | – | – | – |
| COc1ncc(-c2ccc(S(C)(=O)=O)cc2)nc1NCc1ccccn1 [Compound 260] | 4.221 | 4.26 | 4.307 | 2.35 | – | – | – |
| CS(=O)(=O)c1ccc(-c2cnc(C(=O)O)c(NCc3cccs3)n2)cc1 [Compound 261] | 4.063 | 4.55 | 4.034 | – | – | – | – |
| CS(=O)(=O)c1ccc(-c2cncc(N3CCCCC3)n2)cc1 [Compound 262] | 3.643 | 4.57 | 3.693 | 4.04 | 3.59 | 5.13 | – |
| CS(=O)(=O)c1ccc(-c2cncc(NC[C@H]3CCCO3)n2)cc1 [Compound 263] | 4.417 | 4.61 | 4.469 | 4.09 | – | – | – |
| CS(=O)(=O)c1ccc(-c2cccc(NCc3ccn[nH]3)n2)cc1 [Compound 264] | 2.63 | 4.62 | 2.705 | 4.13 | – | – | – |
| CS(=O)(=O)c1ccc(-c2nc(NCc3cccs3)ccc2S(C)(=O)=O)cc1 [Compound 265] | 2.641 | 4.81 | 2.624 | – | – | – | – |
| CS(=O)(=O)c1ccc(-c2cccc([S@@+]([O-])Cc3cccs3)n2)cc1 [Compound 266] | 2.95 | 4.84 | 2.934 | – | – | – | – |
| CS(=O)(=O)c1ccc(-c2ccnc(OCc3cccs3)c2)cc1 [Compound 267] | 1.454 | – | 1.6998 | 2.95 | – | – | 5.2 |
| CS(=O)(=O)c1ccc(-c2cc(S(C)(=O)=O)cc(NCc3cccs3)n2)cc1 [Compound 268] | 2.624 | – | 2.624 | – | – | – | 5.2 |
| COc1cc(S(C)(=O)=O)ccc1-c1cncc(NCc2ccoc2)n1 [Compound 272] | 3.674 | – | 3.674 | – | – | – | 5.2 |
